In BindingDB's records for doi:10.1021/acs.jmedchem.5b01148 (Queensland University of Technology, 2015):
Bridge positions count the residues as written; N and C are the ends. Peptide text beside a SMILES is read from it.

Test: Inhibition of matriptase (unknown origin) using Ac-RQFRpNA substrate by spectrophotometry method

Row | SMILES | Ki [nM]
1 | CC[C@H](C)[C@@H]1NC(=O)[C@H](CO)NC(=O)[C@H](CCCCN)NC(=O)[C@H]([C@@H](C)O)NC(=O)[C@@H](NC(=O)[C@H](CCCNC(=N)N)NC(=O)CN)CSSC[C@@H](C(=O)N[C@@H](Cc2cnc[nH]2)C(=O)O)NC(=O)[C@H](CCCNC(=N)N)NC(=O)[C@@H]2CCCN2C(=O)[C@@H]2CCCN2C1=O (H-GRCTKSIPPRCH-OH; disulfide 3-11) | 82
2 | C[C@@H](O)[C@@H]1NC(=O)[C@@H](NC(=O)[C@H](CCCNC(=N)N)NC(=O)CN)CSSC[C@@H](C(=O)N[C@@H](Cc2cnc[nH]2)C(=O)O)NC(=O)[C@H](CCCNC(=N)N)NC(=O)[C@@H]2CCCN2C(=O)[C@@H]2CCCN2C(=O)[C@H](CC(=O)O)NC(=O)[C@H](CO)NC(=O)[C@H](CCCCN)NC1=O (H-GRCTKSDPPRCH-OH; disulfide 3-11) | 87
3 | CC[C@H](C)[C@@H]1NC(=O)[C@@H]2CCCN2C(=O)[C@@H]2CCCN2C(=O)[C@H](Cc2ccc(O)cc2)NC(=O)[C@H](CO)NC(=O)[C@H](CCCNC(=N)N)NC(=O)[C@H]([C@@H](C)O)NC(=O)[C@@H]2CSSC[C@H](NC1=O)C(=O)N[C@@H](Cc1ccccc1)C(=O)N1CCC[C@H]1C(=O)N[C@H](C(=O)O)CC(=O)NCC(=O)N[C@@H](CCCNC(=N)N)C(=O)N2 (GRCTRSYPPICFPD-OH; disulfide 3-11; lactam N-14) | > 50000
4 | CC[C@H](C)[C@@H]1NC(=O)[C@@H]2CCCN2C(=O)[C@@H]2CCCN2C(=O)[C@H]([C@@H](C)CC)NC(=O)[C@H](CO)NC(=O)[C@H](CCCNC(=N)N)NC(=O)[C@H]([C@@H](C)O)NC(=O)[C@@H]2CSSC[C@H](NC1=O)C(=O)N[C@@H](Cc1ccccc1)C(=O)N1CCC[C@H]1C(=O)N[C@H](C(=O)O)CC(=O)NCC(=O)N[C@@H](CCCNC(=N)N)C(=O)N2 (GRCTRSIPPICFPD-OH; disulfide 3-11; lactam N-14) | 546
